≈ marks a conversion by molar mass, not a printed value. Calls of active or inactive are those of the source. The calls are words filed in the database; no cut-off is given here.
Key:
Staphylococcus aureus [1] = experiment: Antibacterial activity against Staphylococcus aureus ATCC 6538; assay type: functional, organism-based
[2] = system: Staphylococcus epidermidis; experiment: Antibacterial activity against Staphylococcus epidermidis ATCC 12228; assay type: functional, organism-based
Pseudomonas aeruginosa [3] = experiment: Antibacterial activity against Pseudomonas aeruginosa ATCC 1539; assay type: functional, organism-based
Bacillus subtilis [4] = experiment: Antibacterial activity against Bacillus subtilis ATCC 6633; assay type: functional, organism-based
Klebsiella pneumoniae [5] = experiment: Antibacterial activity against Klebsiella pneumoniae UC 57; assay type: functional, organism-based
Staphylococcus aureus [6] = experiment: Antibacterial activity against Staphylococcus aureus ATCC 6538 by disk diffusion method; assay type: functional
[7] = system: Staphylococcus epidermidis; experiment: Antibacterial activity against Staphylococcus epidermidis ATCC 12228 by disk diffusion method; assay type: functional
Pseudomonas aeruginosa [8] = experiment: Antibacterial activity against Pseudomonas aeruginosa ATCC 1539 by disk diffusion method; assay type: functional
Bacillus subtilis [9] = experiment: Antibacterial activity against Bacillus subtilis ATCC 6633 by disk diffusion method; assay type: functional
Klebsiella pneumoniae [10] = experiment: Antibacterial activity against Klebsiella pneumoniae UC 57 by disk diffusion method; assay type: functional
Staphylococcus aureus [11] = experiment: Antibacterial activity against Staphylococcus aureus ATCC 6538 by tube dilution method; assay type: functional
Klebsiella pneumoniae [12] = experiment: Antibacterial activity against Klebsiella pneumoniae UC 57 by tube dilution method; assay type: functional
Bacillus subtilis [13] = experiment: Antibacterial activity against Bacillus subtilis ATCC 6633 by tube dilution method; assay type: functional
[14] = system: Staphylococcus epidermidis; experiment: Antibacterial activity against Staphylococcus epidermidis ATCC 12228 by tube dilution method; assay type: functional
Pseudomonas aeruginosa [15] = experiment: Antibacterial activity against Pseudomonas aeruginosa ATCC 1539 by tube dilution method; assay type: functional
[16] = system: Mycobacterium tuberculosis; experiment: Antitubercular activity against Mycobacterium tuberculosis H37Rv at 250 ug/ml; assay type: functional, organism-based

Structure (SMILES)	Activity (Staphylococcus aureus [1])	Activity [2]	Activity (Pseudomonas aeruginosa [3])	Activity (Bacillus subtilis [4])	Activity (Klebsiella pneumoniae [5])	inhibition zone (IZ) (Staphylococcus aureus [6]) [mm]	inhibition zone (IZ) [7] [mm]	inhibition zone (IZ) (Pseudomonas aeruginosa [8]) [mm]	inhibition zone (IZ) (Bacillus subtilis [9]) [mm]	inhibition zone (IZ) (Klebsiella pneumoniae [10]) [mm]	MIC (Staphylococcus aureus [11]) [µg/mL]	MIC (Klebsiella pneumoniae [12]) [µg/mL]	MIC (Bacillus subtilis [13]) [µg/mL]	MIC [14] [µg/mL]	MIC (Pseudomonas aeruginosa [15]) [µg/mL]	Activity [16]
CC(C)c1ccc2c(c1O)C[C@@H](O)[C@H]1C(C)(C)CCC(=O)[C@]21C	inactive	inactive	inactive	inactive	inactive											
CC(C)c1cc2c(cc1O)[C@@]1(C)C(=O)CCC(C)(C)[C@@H]1[C@H](O)C2=O [HYPARGENIN A]						>7	>7	>7	>7	>7	15.6 (≈ 47.2 µM)	15.6 (≈ 47.2 µM)				
CC(C)(O)c1cc2c(cc1O)[C@@]1(C)CCCC(C)(C)[C@@H]1CC2=O [HYPARGENIN B]						>7	>7	>7	>7	>7	125 (≈ 395 µM)	125 (≈ 395 µM)				
CC(C)c1cc2c(cc1O)[C@@]1(C)CCCC(C)(C)[C@@H]1C(=O)C2=O [HYPARGENIN C]						>7	>7	>7	>7	>7	125 (≈ 398 µM)		15.6 (≈ 49.6 µM)			
CC(C)c1cc2c(cc1O)[C@@]1(C)CCC(=O)C(C)(C)[C@@H]1C=C2 [HYPARGENIN D]						>7	>7	>7	>7	>7			62.5 (≈ 209 µM)			
CC(C)C1=C(O)C(=O)C2=C(C=CC3(O)C(C)(C)CCC[C@]23C)C1=O (stereo partly specified) [HYPARGENIN F]						>7	>7	>7	>7	>7	125 (≈ 378 µM)			62.5 (≈ 189 µM)	125 (≈ 378 µM)	Active
